One test deals with SERT and NET. The note with it: cited from earlier work.
Test [1] deals with T1, SERT (Homo sapiens, UniProt P31645). Briefly: hSERT membrane radioligand binding assay (3H-citalopram). Also on record: expressed in transfected cells; host or cells: HEK-293. Conditions: hSERT membranes (HEK-293), 1.0 nM 3H-citalopram; for Ki: read-out: SERT pKi (converted). A digest of the protocol: (§1)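 HEK-293 membranes stably expressing hNET or hSERT; inhibition of ³H-nisoxetine (hNET) or ³H-citalopram (hSERT) binding in 50 mM Tris-HCl, 120 mM NaCl, 5 mM KCl, pH 7.4, 60 min at 22 °C. Filtration, scintillation counting; nonspecific with 1 μM desipramine (NET) or 1 μM duloxetine (SERT). pKi via Cheng-Prusoff from IC50 and radioligand Kd.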

Test [2] has as its target T2, NET (Homo sapiens, UniProt P23975). Briefly: hNET membrane radioligand binding assay (3H-nisoxetine). The note with it: hNET membranes (HEK-293), 1.0 nM 3H-nisoxetine; read-out: NET pKi (converted). The arrangement: expressed in transfected cells; host or cells: HEK-293. The essentials:
as §1

The target in test [3] is T1, SERT. Briefly: hSERT neurotransmitter uptake assay (3H-5-HT). In kind it is cell-based. Also on record: expressed in transfected cells; host or cells: HEK-293. Conditions: serotonin reuptake inhibition, HEK-293 hSERT cells, 3H-5-HT (no asterisk); read-out: SERT pIC50 (converted). As to the method: (§2) Neurotransmitter uptake assays were used to measure inhibition of ^3H-serotonin (^3H-5-HT), ^3H-norepinephrine (^3H-NE), and ^3H-dopamine (^3H-DA) uptake into cells expressing the respective transporter (hSERT, hNET or hDAT) in order to determine the pIC50 values of test compounds at the transporters.
(§3) HEK-293 derived cell lines stably-transfected with hSERT, hNET, or hDAT, respectively, were grown in DMEM medium supplemented with 10% dialyzed FBS (for hSERT) or FBS (for hNET and hDAT), 100 μg/ml penicillin, 100 μg/ml streptomycin, 2 mM L-glutamine and 250 μg/ml of the aminoglycoside antibiotic G418 (for hSERT and hNET) or 800 ug/ml (for hDAT), in a 5% CO2 humidified incubator at 37° C. When cultures reached 80% confluence, the cells were washed thoroughly in PBS (without Ca^2+ and Mg^2+) and lifted with 5 mM EDTA in PBS. Cells were harvested by centrifugation at 1100 rpm for 5 minutes, washed once by resuspension in PBS, then centrifuged. The supernatant was discarded and the cell pellet resuspended, by gentle trituration, in room temperature Krebs-Ringer bicarbonate buffer containing HEPES (10 mM), CaCl2 (2.2 mM), ascorbic acid (200 μM) and pargyline (200 μM), pH 7.4. The final concentration of cells in the cell suspension was 7.5×10^4 cells/ml, 1.25×10^5 cells/ml, and 5.0×10^4 cells/ml for SERT, NET, and DAT cell lines, respectively.
(§4) Neurotransmitter uptake assays were performed in a 96-well assay plate in a total volume of 400 μl assay buffer (Krebs-Ringer bicarbonate buffer containing HEPES (10 mM), CaCl2 (2.2 mM), ascorbic acid (200 μM) and pargyline (200 μM), pH 7.4) with 1.5×10^4 and 2.5×10^4 cells, for SERT, NET, and DAT, respectively. […] Stock solutions (10 mM in DMSO) of test compound were prepared and serial dilutions prepared using 50 mM Tris-HCl, 120 mM NaCl, 5 mM KCl, pH 7.4, 0.1% BSA, 400 μM ascorbic acid. Test compounds were incubated for 30 minutes at 37° C. with the respective cells, prior to addition of radiolabeled neurotransmitter, ^3H-5-HT (20 nM final concentration), ^3H-NE (50 nM final concentration) or ^3H-DA (100 nM final concentration). Non-specific neurotransmitter uptake was determined in the presence of 2.5 μM duloxetine, 2.5 μM desipramine, or 10 uM GBR-12909 (each in Dilution Buffer) for the hSERT, hNET, or hDAT assays, respectively.
(§5) Following a 10 minute incubation, at 37° C., with radioligand, the cells were harvested by rapid filtration over a 96-well UniFilter GF/B plate, pretreated with 1% BSA, and washed 6 times with 650 μl wash buffer (ice cold PBS). Plates were dried overnight at 37° C., ˜45 μl of MicroScint™-20 (Perkin Elmer) added and incorporated radioactivity quantitated via liquid scintillation spectroscopy Inhibition curves were analyzed using GraphPad Prism Software package (GraphPad Software, Inc., San Diego, Calif.). IC50 values were generated from concentration response curves using the Sigmoidal Dose Response (variable slope) algorithm in Prism GraphPad.

Test [4] has as its target T2, NET. Briefly: hNET neurotransmitter uptake assay (3H-NE). It counts as cell-based. The arrangement: expressed in transfected cells; host or cells: HEK-293. The note with it: norepinephrine reuptake inhibition, HEK-293 hNET cells, 3H-NE (no asterisk); read-out: NET pIC50 (converted). How it is done:
as §2, §3, §4, §5

A value given as a limit tells only on which side of the number the result lay.

T1 sequence (P31645 whole entry): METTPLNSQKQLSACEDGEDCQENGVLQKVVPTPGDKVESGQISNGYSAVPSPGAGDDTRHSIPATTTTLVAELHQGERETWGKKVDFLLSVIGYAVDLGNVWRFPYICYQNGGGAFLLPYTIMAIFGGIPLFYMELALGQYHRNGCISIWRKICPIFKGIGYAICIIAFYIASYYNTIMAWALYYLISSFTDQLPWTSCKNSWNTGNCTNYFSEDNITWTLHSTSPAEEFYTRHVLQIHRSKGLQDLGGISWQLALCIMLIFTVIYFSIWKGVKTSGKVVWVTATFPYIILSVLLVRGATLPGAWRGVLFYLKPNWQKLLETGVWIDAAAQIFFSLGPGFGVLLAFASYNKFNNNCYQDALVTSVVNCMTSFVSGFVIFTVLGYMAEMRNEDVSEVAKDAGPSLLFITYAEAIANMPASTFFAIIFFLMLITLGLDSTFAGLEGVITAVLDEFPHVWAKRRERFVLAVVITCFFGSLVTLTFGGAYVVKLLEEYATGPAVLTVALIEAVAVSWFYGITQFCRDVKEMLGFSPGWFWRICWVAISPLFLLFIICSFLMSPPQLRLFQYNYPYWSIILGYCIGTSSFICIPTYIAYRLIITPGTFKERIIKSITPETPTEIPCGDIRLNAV
T2 sequence (P23975 whole entry): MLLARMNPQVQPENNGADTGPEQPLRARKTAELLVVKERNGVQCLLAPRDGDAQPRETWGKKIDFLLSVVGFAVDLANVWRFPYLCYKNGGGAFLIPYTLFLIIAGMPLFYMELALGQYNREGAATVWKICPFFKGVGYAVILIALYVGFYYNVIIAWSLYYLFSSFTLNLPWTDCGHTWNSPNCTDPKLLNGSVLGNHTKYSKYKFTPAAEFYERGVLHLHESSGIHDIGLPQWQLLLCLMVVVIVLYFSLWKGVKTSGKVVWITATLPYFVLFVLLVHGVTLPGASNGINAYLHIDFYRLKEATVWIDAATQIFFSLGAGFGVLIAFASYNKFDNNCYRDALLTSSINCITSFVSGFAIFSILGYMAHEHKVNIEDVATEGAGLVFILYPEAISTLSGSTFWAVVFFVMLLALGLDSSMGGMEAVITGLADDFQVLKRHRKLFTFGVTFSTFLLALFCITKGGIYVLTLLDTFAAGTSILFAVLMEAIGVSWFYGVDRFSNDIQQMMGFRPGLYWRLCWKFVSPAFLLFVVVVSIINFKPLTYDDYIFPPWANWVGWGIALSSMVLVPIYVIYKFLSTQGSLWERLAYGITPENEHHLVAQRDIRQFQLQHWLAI

Regarding `CNCC[C@H](Oc1cccc2ccccc12)c1cccs1` [duloxetine], in the test with SERT and NET (Vaishnavi et al. (2004)), the “affinity for SERT relative to NET” value is “higher affinity for SERT relative to NET”. For the same compound, in the test on SERT and NET, the “selectivity (measured as pKi) for SERT over NET” value was 10 fold.
Take `COC[C@@H](Oc1ccc(Cl)cc1Cl)[C@H]1CCNC1` [Example 4-23, (S)-3-[(S)-1-(2,4-Dichlorophenoxy)-2-methoxyethyl]pyrrolidine]: the Ki at SERT [1] was no more than 0.01 µM; on NET [2], no more than 0.1 µM. The IC50 on SERT [3] is no more than 0.01 µM; at NET [4], no more than 0.1 µM.
Regarding `Clc1cccc(O[C@@H](C2CCOCC2)[C@@H]2CCNC2)c1Cl` [Example 12, (R)-3-[(S)-(2,3-Dichlorophenoxy)(tetrahydropyran-4-yl)-methyl]pyrrolidine], the Ki at SERT [1] and on NET [2] was no more than 0.01 µM in each case. Also, the IC50 at SERT [3] and at NET [4] was no more than 0.01 µM throughout.
As for `COC[C@H](Oc1cccc(Cl)c1C)[C@H]1CCNC1` [Example 4-16, (S)-3-[(R)-1-(3-Chloro-2-methylphenoxy)-2-methoxyethyl]pyrrolidine], the Ki at SERT [1] and at NET [2] was no more than 0.01 µM throughout. In addition, the IC50 at SERT [3] and at NET [4] was no more than 0.01 µM in each case.
Turning to `CNCC[C@@H](Oc1ccccc1C)c1ccccc1` [Atomoxetine], in the test on SERT and NET, the NET selective is 10 fold.
For the compound `CCOC[C@@H](Oc1cccc(Cl)c1Cl)[C@H]1CCNC1` [Example 7-8, (S)-3-[(S)-1-(2,3-Dichlorophenoxy)-2-ethoxyethyl]pyrrolidine], the Ki on SERT [1] and at NET [2] was no more than 0.01 µM each time. The IC50 at SERT [3] and at NET [4] was no more than 0.01 µM each time.
With `COC[C@H](Oc1ccc(Cl)cc1Cl)[C@H]1CCNC1` [Example 3, (S)-3-[(R)-1-(2,4-Dichlorophenoxy)-2-methoxyethyl]pyrrolidine], the Ki at SERT [1] and on NET [2] was no more than 0.01 µM throughout. For the same compound, the IC50 on SERT [3] and at NET [4] was no more than 0.01 µM in each case.
As for `COCCC(Oc1ccc(Cl)cc1C)C1CCNC1` (single isomer, unassigned) [5 (2nd peak)], the “SERT pKi” value at SERT [1] is on record as “≧8.0”. Also, the Ki at NET [2] is no more than 0.01 µM. Further, the IC50 on SERT [3] and at NET [4] was no more than 0.01 µM each time.
As to `Clc1cccc(O[C@H](C2CCOCC2)[C@H]2CCNC2)c1Cl` [Example 13-12, (S)-3-[(R)-(2,3-Dichlorophenoxy)(tetrahydropyran-4-yl)methyl]pyrrolidine], the Ki at SERT [1] and on NET [2] was no more than 0.01 µM throughout. Further, the IC50 at SERT [3] and at NET [4] was no more than 0.01 µM each time.
Regarding `FC(F)(F)c1c(Cl)cccc1O[C@H](C1CCOCC1)[C@@H]1CCNC1` [Example 13-20, (R)-3-[(R)-(3-Chloro-2-trifluoromethylphenoxy)(tetrahydropyran-4-yl)-methyl]-pyrrolidine], the Ki on SERT [1] and on NET [2] was no more than 0.01 µM in each case. In addition, the values for the IC50 on SERT [3] and on NET [4] were no more than 0.1 µM and no more than 0.01 µM, respectively.
For `Clc1cccc(Cl)c1O[C@@H](C1CCOCC1)[C@H]1CCNC1` [Example 13-24, (S)-3-[(S)-(2,6-Dichlorophenoxy)(tetrahydropyran-4-yl)methyl]pyrrolidine], the Ki on SERT [1] and on NET [2] was no more than 0.01 µM in each case. In addition, the IC50 on SERT [3] and at NET [4] was no more than 0.01 µM throughout.
`Fc1cccc(O[C@@H](C2CCOCC2)[C@H]2CCNC2)c1Cl` [Example 13-14, (S)-3-[(S)-(2-Chloro-3-fluorophenoxy)(tetrahydropyran-4-yl)methyl]pyrrolidine]: the Ki at SERT [1] and on NET [2] was no more than 0.01 µM each time. Also, the IC50 at SERT [3] is no more than 0.1 µM; on NET [4] it was no more than 0.01 µM.
Consider `Clc1ccc(O[C@@H](C2CCOCC2)[C@H]2CCNC2)c(Cl)c1` [Example 13-22, (S)-3-[(S)-(2,4-Dichlorophenoxy)(tetrahydropyran-4-yl)methyl]pyrrolidine], for which the values for the Ki at SERT [1] and on NET [2] were no more than 0.1 µM and no more than 0.01 µM, respectively. Further, the IC50 at SERT [3] was no more than 0.1 µM; on NET [4] it was no more than 0.01 µM.
As for `COC[C@@H](Oc1cccc(Cl)c1C(F)(F)F)[C@H]1CCNC1` [Example 4-20, (S)-3-[(S)-1-(3-Chloro-2-trifluoromethylphenoxy)-2-methoxyethyl]pyrrolidine], the Ki on SERT [1] and on NET [2] was no more than 0.01 µM in each case. Moreover, the IC50 on SERT [3] was no more than 0.1 µM; at NET [4], no more than 0.01 µM.
Consider `Clc1ccccc1O[C@@H](C1CCOCC1)[C@H]1CCNC1` [Example 13-1, (S)-3-[(S)-(2-Chlorophenoxy)(tetrahydropyran-4-yl)methyl]pyrrolidine], for which the Ki at SERT [1] was no more than 0.1 µM; at NET [2] it was no more than 0.01 µM. Further, the IC50 at SERT [3] is no more than 1 µM; on NET [4] it was no more than 0.01 µM.
As for `CCN(CC)C(=O)C1(c2ccccc2)CC1CN` (stereo not drawn) [milnacipran], the “selectivity (measured as pKi) for SERT over NET” value with SERT and NET is recorded as 2.5 fold.
`Fc1cccc(O[C@H](C2CCOCC2)[C@H]2CCNC2)c1Cl` [Example 13-15, (S)-3-[(R)-(2-Chloro-3-fluorophenoxy)(tetrahydropyran-4-yl)methyl]pyrrolidine]: the Ki at SERT [1] and on NET [2] was no more than 0.01 µM each time. Moreover, the IC50 on SERT [3] and at NET [4] was no more than 0.01 µM throughout.
Take `Clc1ccccc1O[C@H](C1CCOCC1)[C@H]1CCNC1` [Example 13-4, (S)-3-[(R)-(2-Chlorophenoxy)(tetrahydropyran-4-yl)methyl]pyrrolidine]: the Ki at SERT [1] is no more than 0.01 µM; on NET [2], no more than 0.1 µM. The IC50 at SERT [3] and at NET [4] was no more than 0.1 µM in each case.
For the compound `COCC(Oc1cccc(Cl)c1C(F)(F)F)C1CCNC1` (stereo not drawn) [Example 4-18, 3-[1-(3-Chloro-2-trifluoromethylphenoxy)-2-methoxyethyl]pyrrolidine], the Ki at SERT [1] and at NET [2] was no more than 0.01 µM throughout. Besides, the IC50 at SERT [3] is no more than 0.1 µM; at NET [4] it was no more than 0.01 µM.
On to `COCC(Oc1ccc(Cl)cc1C)C1CCNC1` (stereo not drawn) [Example 4-26, 3-[1-(4-Chloro-2-methylphenoxy)-2-methoxyethyl]pyrrolidine], for which the Ki on SERT [1] and on NET [2] was no more than 0.01 µM in each case. The IC50 at SERT [3] is no more than 0.1 µM; at NET [4] it was no more than 0.01 µM.

Source of the values: US8455665B2, “3-phenoxymethylpyrrolidine compounds” (Theravance, Inc., priority 2009, dated 2013).
